Literature values, collected in publication PMC10377753, “Pharmacokinetic and pharmacodynamic properties of polymyxin B in Escherichia coli and Klebsiella pneumoniae murine infection models” (Journal of Antimicrobial Chemotherapy, 2023).

Tested on: plasma proteins
Conditions: mouse, spiked pooled plasma, ultracentrifugation; cited from earlier work
From the text: Protein binding of polymyxin B is known to be high. However, a difference was found between the current study (unbound fraction 20%) compared with previous studies (8.6% for polymyxin B,[8] 8.4% for colistin[5]), which affects the PTA. In the present study, ultrafiltration was used for determining the unbound fraction, whilst ultracentrifugation was used in the other studies. With the ultrafiltration method, correction for the NSB to the ultrafiltration membranes was needed. In addition, differences in mouse plasma used for determination of polymyxin B protein binding may (partly) explain the ...

colistin
Unbound fraction: 8.4%
